This passage reports IC50 results from ChEMBL document CHEMBL1143564, “Structures of three classes of anticancer agents bound to the human topoisomerase I-DNA covalent complex” (J Med Chem, 2005).

The experiment has as its target T1, DNA topoisomerase 1 (Homo sapiens, UniProt P11387).
T1 sequence (P11387 whole entry): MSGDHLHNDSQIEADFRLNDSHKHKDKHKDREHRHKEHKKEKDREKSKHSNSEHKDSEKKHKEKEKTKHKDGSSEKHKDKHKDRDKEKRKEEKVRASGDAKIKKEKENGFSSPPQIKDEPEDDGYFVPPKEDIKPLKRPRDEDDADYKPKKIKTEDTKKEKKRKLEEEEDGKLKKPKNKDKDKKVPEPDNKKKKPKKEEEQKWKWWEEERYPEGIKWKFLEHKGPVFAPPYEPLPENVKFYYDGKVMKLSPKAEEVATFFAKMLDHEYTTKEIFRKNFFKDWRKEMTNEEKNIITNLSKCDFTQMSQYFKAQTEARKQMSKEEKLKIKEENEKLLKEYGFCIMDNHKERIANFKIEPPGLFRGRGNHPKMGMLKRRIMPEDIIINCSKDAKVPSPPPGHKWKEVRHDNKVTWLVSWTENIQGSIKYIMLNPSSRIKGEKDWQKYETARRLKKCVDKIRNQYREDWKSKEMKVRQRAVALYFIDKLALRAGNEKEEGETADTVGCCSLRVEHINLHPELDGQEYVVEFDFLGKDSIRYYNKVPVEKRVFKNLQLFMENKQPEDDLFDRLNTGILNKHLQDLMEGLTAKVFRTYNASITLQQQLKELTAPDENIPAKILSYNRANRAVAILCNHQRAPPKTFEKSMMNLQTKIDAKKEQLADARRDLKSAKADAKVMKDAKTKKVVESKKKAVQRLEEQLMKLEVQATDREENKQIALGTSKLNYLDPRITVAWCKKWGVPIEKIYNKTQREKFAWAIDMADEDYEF
In words: Inhibition of topoisomerase I-DNA complex in trapping assay.

What is called IC50 is the concentration at which inhibition is half-maximal. A high value points to weaker potency. `O=C1NC(=O)c2c1c1c3ccc(O)cc3[nH]c1c1c2c2ccc(O)cc2n1C1OC(CO)C(O)C(O)C1O` (stereo unspecified) yielded an IC50 of 30 nM.
